Reference: PMC6155812, “Synthesis, Anti-Breast Cancer Activity, and Molecular Docking Study of a New Group of Acetylenic Quinolinesulfonamide Derivatives” (Molecules : A Journal of Synthetic Chemistry and Natural …, 2017)
Like-named read-outs stand apart in the source and are kept apart here.

Assays:
[1] = tested on: T47D (human ductal carcinoma) cells; experiment: WST-1 antiproliferative assay, T47D; format: cell-based; conditions: WST-1 assay, 3–4 days, 0.5–250 µM, neg = negative in concentration used; for IC50: read-out: IC50 ± SD, T47D
Excerpt: (§1) Encouraged by promising results in the field of antiproliferative derivatives of acetylenic sulfanylquinoline derivatives, in this study the decision was made to combine the biological potentials of sulfamoylquinoline and alkynyl moieties, with the intention of obtaining compounds with better activity against breast cancer cell lines. The SAR analyses of the acetylenic sufamoylquinoline were based on the cell growth inhibition potencies on the MCF-7 (human adenocarcinoma), MDA-MB-231 and T-47D (human ductal carcinoma) cells using the WST-1 assay. The results from the in vitro cytotoxicity assay are expressed as the concentration of compound (µM) that inhibited the proliferation of 50% of the tumor cells, compared to the control untreated cells (IC50). Cisplatin was used as a positive control to induce cell death.
(§2) The cell lines (MCF-7, MDA-MB-231, and nontumor HFF-1) were cultured and kept in Dubecco’s modified Eagle medium (DMEM) supplemented with 10% fetal bovine serum (FBS) 1.000 IU·mL^−1 penicillin and 10 mg·m^−1·mL^−1 streptomycin in atmosphere with 5% CO2 at 37 °C. The cells were seeded using a series of standard 96-well plates (Corning). Test compounds were prepared at a concentration of 5.0 mM dimethyl sulfoxide (DMSO). Freshly prepared dilutions of the test compounds in a culture medium at a concentration of 0.5–250 µM were added to the microtiter plates and the cells were grown for 3–4 days. Solvent control (DMSO) was included to check its potential inhibitory activity at the concentration used. After incubation, the cell growth rate was evaluated by performing a WST-1 assay. The amount of formazan produced was measured at 450 nm. Expermentally determined absorbance values were transformed into the cell percentage of growth as described previously. Each test point was performed in triplicate for each tested compound cocentration. The results were statistically analyzed using PraphPad Prism 6 software (Graphpad Software, Inc., La Jolla, CA, USA).

MDA-MB-231 cells = experiment: WST-1 antiproliferative assay, MDA-MB-231; format: cell-based, human; conditions: 3–4 days, 0.5–250 µM, neg = negative in concentration used, read-out: IC50 ± SD, MDA-MB-231
Excerpt: as §1, §2

HFF-1 normal fibroblasts = experiment: WST-1 cytotoxicity assay, normal fibroblasts HFF-1; format: cell-based, human; conditions: 3–4 days, 0.5–250 µM, neg = negative in concentration used; for IC50: read-out: IC50 ± SD, HFF-1
Excerpt: as §1, §2

[2] = tested on: MCF-7 (human adenocarcinoma) cells; experiment: WST-1 antiproliferative assay, MCF-7; format: cell-based; conditions: 3–4 days, 0.5–250 µM, neg = negative in concentration used; for IC50: read-out: IC50 ± SD, MCF-7
Excerpt: as §1, §2

[3] = Homo sapiens, MDA-MB-231, WST-1 assay
[4] = Homo sapiens, MCF7, WST-1 assay
[5] = Homo sapiens, HFF-1, WST-1 assay

IC50 ± SD, T47D [1]	melting point [°C]	IC50 (MDA-MB-231 cells; [3]) [µM]	IC50 [2, 4] [µM]	IC50 ([1]; Homo sapiens, T47D) [µM]	IC50 ± SD, MCF-7 ([2]; WST-1 assay)	IC50 ([1]; listed as 4-(3-propynylthio)-7-[N-methyl-N-(3-propynyl)sulfamoyl]quinoline) [µM]	SMILES	IC50 ± SD, HFF-1 (HFF-1 normal fibroblasts; WST-1 assay)	IC50 (HFF-1 normal fibroblasts; [5]) [µM]	IC50 (MDA-MB-231 cells; WST-1 assay) [µM]	IC50 [1] [µM]	IC50 (HFF-1 normal fibroblasts; WST-1 assay) [µM]	IC50 ([2]; WST-1 assay) [µM]
neg ^1	110 to 111	140 ± 1.98	351 ± 6.32				C#CCN(C)S(=O)(=O)c1cc2ccccc2nc1Cl [2a, 2-Chloro-3-[N-methyl-N-(3-propynyl)sulfamoyl]quinoline]	neg					
	140 to 141	0.24 ± 0.01	22.9 ± 1.45	0.3 ± 0.03			C#CCN(C)S(=O)(=O)c1ccc2nc(Cl)ccc2c1 [2b, 2-Chloro-6-[N-methyl-N-(3-propynyl)sulfamoyl]quinoline]	neg					
	120 to 121	0.27 ± 0.02		2.24 ± 0.11			C#CCN(C)S(=O)(=O)c1cnc2ccccc2c1Cl [2c, 4-Chloro-3-[N-methyl-N-(3-propynyl)sulfamoyl]quinoline]		85.4 ± 1.6				
	124 to 125	180 ± 2.35	233.8 ± 1.56	292 ± 2.34			C#CCN(C)S(=O)(=O)c1ccc2nccc(Cl)c2c1 [2d, 4-Chloro-6-[N-methyl-N-(3-propynyl)sulfamoyl]quinoline]		425.2 ± 1.46				
	119 to 120	59.3 ± 1.56		26.8 ± 0.67			C#CCN(C)S(=O)(=O)c1ccc2c(Cl)ccnc2c1 [2e, 4-Chloro-7-[N-methyl-N-(3-propynyl)sulfamoyl]quinoline]	neg					
	130 to 133	204 ± 3.1	61.2 ± 1.65	295.6 ± 2.56			C#CCN(C)S(=O)(=O)c1cccc2c(Cl)ccnc12 [2f, 4-Chloro-8-[N-methyl-N-(3-propynyl)sulfamoyl]quinoline]		153 ± 3				
neg	100 to 101	11.8 ± 0.87	288 ± 3.45				C#CCSc1nc2ccccc2cc1S(=O)(=O)N(C)CC#C [5a, 2-(3-Propynylthio)-3-[N-methyl-N-(3-propynyl)sulfamoyl]quinoline]	neg					
	164 to 165		18.4 ± 0.98	182 ± 3.23			C#CCSc1ccc2cc(S(=O)(=O)N(C)CC#C)ccc2n1 [5b, 2-(3-Propynylthio)-6-[N-methyl-N-(3-propynyl)sulfamoyl]quinoline]	neg		0.27 ± 0.03			
	101 to 102	116 ± 2.13		205 ± 6.02	neg		C#CCSc1c(S(=O)(=O)N(C)CC#C)cnc2ccccc12 [5c, 4-(3-Propynylthio)-3-[N-methyl-N-(3-propynyl)sulfamoyl]quinoline]	neg					
neg	139 to 140	202 ± 5.46	236.8 ± 2.34				C#CCSc1ccnc2ccc(S(=O)(=O)N(C)CC#C)cc12 [5d, 4-(3-Propynylthio)-6-[N-methyl-N-(3-propynyl)sulfamoyl]quinoline]	neg					
	113 to 114	7.12 ± 0.78	0.27 ± 0.03			0.07	C#CCSc1ccnc2cc(S(=O)(=O)N(C)CC#C)ccc12 [5e, 4-(3-Propynylthio)-7-[N-methyl-N-(3-propynyl)sulfamoyl]quinoline]		276.1 ± 2.6		0.21 ± 0.01		
	119 to 120	21.2 ± 0.96	13.09 ± 0.11	0.27 ± 0.03			C#CCSc1ccnc2c(S(=O)(=O)N(C)CC#C)cccc12 [5f, 4-(3-Propynylthio)-8-[N-methyl-N-(3-propynyl)sulfamoyl]quinoline]		366.1 ± 1.46				
							N.N.[Cl][Pt][Cl] [Cisplatin, reference compound]			17.6 ± 0.31	30.3 ± 0.34	7.2 ± 0.6	77.76 ± 0.76
	97 to 98	8.73 ± 0.78	7.36 ± 0.45	127 ± 2.01			C#CCSc1ccc2ncc(SCC#C)cc2c1 [compound 11, 3,6-Di(3-propynylthio)quinoline]		176 ± 3				
	138 to 139	2.86 ± 0.34	3.14 ± 0.34	2.5 ± 0.09			C#CCN(C)S(=O)(=O)c1ccc2ncc(S(=O)(=O)N(C)CC#C)cc2c1 [compound 12, 3,6-Di[N-methyl-N-(3-propynyl)sulfamoyl]quinoline]		375.5 ± 3				
	109 to 110						O=S(=O)(Cl)c1cnc2ccc(Cl)cc2c1 [compound 13, 6-chloro-3-chlorosulfonylquinoline]						
	146 to 147	26.8 ± 1.45	118 ± 2.04	11.7 ± 1.11			C#CCN(C)S(=O)(=O)c1cnc2ccc(Cl)cc2c1 [compound 14, 6-Chloro-3-[N-methyl-N-(3-propynyl)sulfamoyl]quinoline]		71.8 ± 1.6				

SMILES	IC50 ± SD, T47D [1]	melting point [°C]	IC50 (MDA-MB-231 cells; [3]) [µM]	IC50 [2, 4] [µM]	IC50 ([1]; Homo sapiens, T47D) [µM]	IC50 ± SD, MCF-7 ([2]; WST-1 assay)	IC50 ([1]; listed as 4-(3-propynylthio)-7-[N-methyl-N-(3-propynyl)sulfamoyl]quinoline) [µM]	IC50 ± SD, HFF-1 (HFF-1 normal fibroblasts; WST-1 assay)	IC50 (HFF-1 normal fibroblasts; [5]) [µM]	IC50 (MDA-MB-231 cells; WST-1 assay) [µM]	IC50 [1] [µM]	IC50 (HFF-1 normal fibroblasts; WST-1 assay) [µM]	IC50 ([2]; WST-1 assay) [µM]
C#CC[Se]c1nc2ccccc2cc1S(=O)(=O)N(C)CC#C [6a, 2-(3-Propynylseleno)-3-[N-methyl-N-(3-propynyl)sulfamoyl]quinoline]		109 to 110	0.42 ± 0.01	237.9 ± 2.11	146 ± 1.98			neg					
C#CC[Se]c1ccc2cc(S(=O)(=O)N(C)CC#C)ccc2n1 [6b, 2-(3-Propynylseleno)-6-[N-methyl-N-(3-propynyl)sulfamoyl]quinoline]		179 to 180		22.72 ± 0.12	10.6 ± 0.15				92.9 ± 2	1.32 ± 0.12			
C#CC[Se]c1c(S(=O)(=O)N(C)CC#C)cnc2ccccc12 [6c, 4-(3-Propynylseleno)-3-[N-methyl-N-(3-propynyl)sulfamoyl]quinoline]		122 to 123	17.6 ± 0.87	113	313 ± 7.98			neg					
C#CC[Se]c1ccnc2ccc(S(=O)(=O)N(C)CC#C)cc12 [6d, 4-(3-Propynylseleno)-6-[N-methyl-N-(3-propynyl)sulfamoyl]quinoline]	neg	139 to 140	0.68 ± 0.09	259 ± 5.45					331 ± 4				
C#CC[Se]c1ccnc2cc(S(=O)(=O)N(C)CC#C)ccc12 [6e, 4-(3-Propynylseleno)-7-[N-methyl-N-(3-propynyl)sulfamoyl]quinoline]		108 to 109	23.5 ± 1.02	109 ± 2.11	160 ± 3.23			neg					
C#CC[Se]c1ccnc2c(S(=O)(=O)N(C)CC#C)cccc12 [6f, 4-(3-Propynylseleno)-8-[N-methyl-N-(3-propynyl)sulfamoyl]quinoline]		111 to 115	64.5 ± 1.98	0.26 ± 0.01	55.6 ± 1.78				317 ± 5.46				
